Results: paper PMC8631057 (Antiviral research, 2021)
Like-named read-outs stand apart in the source and are kept apart here.

Tests used:
rCedV-Luc [1] = assay: microbe, parasite or virus in culture; format: cell-based; settings: read-out: IC50 (95% CI)
rCedV-Luc [2] = assay: microbe, parasite or virus in culture; format: cell-based; settings: Cedar virus, Vero C1008, 48 h, read-out: IC50 (95% CI)
NiV-B = assay: microbe, parasite or virus in culture; format: cell-based, Nipah virus; settings: for IC50: read-out: IC50 (95% CI)
HeV = assay: microbe, parasite or virus in culture; format: cell-based, Hendra virus; settings: for IC50: read-out: IC50 (95% CI)
CedV F and G = format: cell-based
in vitro = settings: human
Vero 76 cell line = settings: African green monkey

In the case of `CCOc1ccc(C2c3[nH]c4ccccc4c3CCN2C(=O)C2CCC2)cc1` (stereo not drawn) [Compound C1, cyclobutyl(1-(4-ethoxyphenyl)-1,3,4,9-tetrahydro-2H-pyrido[3,4-b]indol-2-yl)methanone], the IC50 (rCedV-Luc [1]; Cedar virus, HEK-293T, 48 h) is reported as 3.06 µM, the IC50 (rCedV-Luc [2]) is reported as 7.82 µM and the “Selectivity index (SI)” value (NiV-B) is reported as > 55. For the same compound, the IC50 (NiV-B; Henipavirus nipahense, Vero 76, 48 h) was 1.83 µM, the “Selectivity index (SI)” value (HeV) was > 10 and the IC50 (HeV; Henipavirus hendraense, Vero 76, 48 h) was 9.87 µM. The “Inhibition of cell-cell membrane fusion activity” value (CedV F and G) was “did not inhibit cell-cell membrane fusion activity” and the CC50 (in vitro) was > 100 µM.
In the case of `COc1ccc(Nc2nc(-c3nnn(-c4ccc(Br)cc4F)c3C)ns2)cc1` [Z, 3-(1-(4-bromo-2-fluorophenyl)-5-methyl-1H-1,2,3-triazol-4-yl)-N-(4-methoxyphenyl)-1,2,4-thiadiazol-5-amine], the IC50 (rCedV-Luc [1]; Cedar virus, HEK-293T, 48 h) is reported as 0.13 µM, the IC50 (rCedV-Luc [2]) is reported as 0.41 µM and the CC50 (in vitro) is reported as > 100 µM.
With “(1-(6-(cyclopropylamino)pyrimidin-4-yl)piperidin-4-yl)-N-(2-(thiophen-2-yl)ethyl)propenamide [Compound A3]” the IC50 (rCedV-Luc [1]) was ~0.3 µM, the CC50 (HEK 293T cells) was > 100 µM and the CC50 (Vero E6 cells) was > 100 µM.
In the case of “cyclobutyl(1-(4-ethoxyphenyl)-1,3,4,9-tetrahydro-2H-pyrido[3,4-b]indol-2-yl)methanone [Compound F1]”, the IC50 (NiV-B) is reported as 4.15 µM, the IC50 (HeV) is reported as 19.6 µM and the “Inhibition of cell-cell membrane fusion activity” value (CedV F and G) is reported as “did not inhibit cell-cell membrane fusion activity”. The “Cytotoxicity (in words)” value (HEK 293T cells) was “mild toxicity”, the CC50 (HEK 293T cells; human) was 85.8 µM and the CC50 (Vero E6 cells; African green monkey) was > 100 µM. The CC50 (Vero 76 cell line) was > 100 µM.
